The numbers were not newly measured in patent publication US5935954A, “Compounds with improved multi-drug resistance activity” (Vertex Pharmaceuticals Incorporated, priority 1997, dated 1999), which cites them from elsewhere.

One data set deals with sensory ganglia. As to conditions: cited from earlier work.
For data set [1], the system named is rat pheochromocytoma cell line. The following applies: with NGF; cited from earlier work.
In data set [2] the test system is multi-drug resistant ("MDR") cells. As to conditions: cited from earlier work.
Data set [3] relates to FK506 binding protein or FKBP12. The following applies: cited from earlier work.
The test system of a further data set is nerve cells. As to conditions: cited from earlier work.

For the compound `C=CC[C@@H]1/C=C(\C)C[C@H](C)C[C@H](OC)[C@H]2O[C@@](O)(C(=O)C(=O)N3CCCC[C@H]3C(=O)O[C@H](/C(C)=C/[C@@H]3CC[C@@H](O)[C@H](OC)C3)[C@H](C)[C@@H](O)CC1=O)[C@H](C)C[C@@H]2OC` [FK506], the neurotrophic effects result with sensory ganglia is “demonstrated similar neurotrophic effects”. In addition, in data set [1], the neurite outgrowth entry is “acts synergistically”. In addition, the “sensitization of MDR cells / activity against multi-drug resistance” value in data set [2] is given as “effective against multi-drug resistance”. In data set [3], the “binding to FKBP12” value is “have the ability to bind”. The “stimulation of neurite outgrowth” value in the data set with nerve cells is reported as “effective in stimulating neurite outgrowth”.

For `CO[C@H]1C[C@@H]2CC[C@@H](C)[C@@](O)(O2)C(=O)C(=O)N2CCCC[C@H]2C(=O)O[C@H]([C@H](C)C[C@@H]2CC[C@@H](O)[C@H](OC)C2)CC(=O)[C@H](C)/C=C(\C)[C@@H](O)[C@@H](OC)C(=O)[C@H](C)C[C@H](C)/C=C/C=C/C=C/1C` [rapamycin], the neurotrophic effects result in the data set on sensory ganglia is “those effects were blocked by rapamycin”. The neurite outgrowth result in data set [1] was “did not inhibit the effects of FK-506 on neurite outgrowth, but rather was neurotrophic itself, displaying an additive effect with FK-506”. Moreover, the “binding to FKBP12” value in data set [3] is “have the ability to bind”.
